According to ChEMBL document CHEMBL1158881, “Puupehenone congeners from an indo-pacific hyrtios sponge” (J Nat Prod, 2003):
Active and inactive are the calls of the source.

Key:
Format in all cases: functional, cell-based
[1] = system: MC-38; assay: Cytotoxicity against mouse Colon 38 cells by Valeriote soft agar disk diffusion assay
[2] = system: H116; assay: Cytotoxicity against human H116 cells by Valeriote soft agar disk diffusion assay
[3] = system: L1210; assay: Cytotoxicity against mouse L1210 cells by Valeriote soft agar disk diffusion assay

Measured: Activity

COC1=CC2=C[C@@H]3[C@@]4(C)CCCC(C)(C)[C@@H]4CC[C@]3(C)OC2=CC1=O
inactive: all assays above

COc1cc2c(cc1O)O[C@@]1(C)CC[C@H]3C(C)(C)CCC[C@]3(C)[C@H]1[C@@H]2OC
inactive: all assays above

COc1cc2c(cc1O)O[C@@]1(C)CC[C@H]3C(C)(C)CCC[C@]3(C)C1=C2
inactive: all assays above
